Assays:
Capan-1 (K-Ras G12V) = test: CellTiter-Glo cell viability assay, 5-day treatment; type: cell-based; conditions: Homo sapiens, CAPAN-1, 120 h, 5-day treatment; read-out: Capan-1 Cell Viability assay data (K-Ras G12V, IC50)
Summary of the method: (§1)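 Compounds were dispensed directly onto seeded cells and incubated for 5 days, then plates were equilibrated to room temperature for about 30 minutes before luminescence reading. Signals were expressed as percent of the mean DMSO control and fitted with a four-parameter logistic curve.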

NCI-H358 (K-Ras G12C) = test: as above; type: cell-based; conditions: Homo sapiens, NCI-H358, 120 h, 5-day treatment; read-out: H358 Cell Viability assay data (K-Ras G12C, IC50)
Summary of the method: as §1

KRAS G12C = KRAS G12C (Homo sapiens, UniProt P01116+P62937, G12C); test: Disruption of BRAF RBD interaction with Ras (FRET / MOA assay, with Cyclophilin A); type: biochemical; conditions: read-out: KRAS G12C FRET data, IC50
Summary of the method: (§2)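 Measured via TR-FRET after 3 h at 25 °C with compound (30 μM top, threefold serial steps, ten concentrations) plus K-Ras, Cyclophilin A and BRAF RBD, followed by 1.5 h with anti-His europium (10 nM) and anti-GST allophycocyanin (50 nM). Signal loss versus DMSO gave IC50.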

KRAS G12D = KRAS G12D (Homo sapiens, UniProt P01116+P62937, G12D); test: as above; type: biochemical; conditions: read-out: KRAS G12D FRET data, IC50
Summary of the method: as §2

KRAS G12S = KRAS G12S (Homo sapiens, UniProt P01116+P62937, G12S); test: as above; type: biochemical; conditions: read-out: KRAS G12S FRET data, IC50
Summary of the method: as §2

KRAS G12V = KRAS G12V (Homo sapiens, UniProt P01116+P62937, G12V); test: as above; type: biochemical; conditions: KRAS G12V; read-out: KRAS G12V FRET data IC50
Summary of the method: as §2

KRAS G13C = KRAS G13C (Homo sapiens, UniProt P01116+P62937, G13C); test: as above; type: biochemical; conditions: read-out: KRAS G13C FRET data, IC50
Summary of the method: as §2

KRAS G13D = KRAS G13D (Homo sapiens, UniProt P01116+P62937, G13D); test: as above; type: biochemical; conditions: KRAS G13D; read-out: KRAS G13D FRET data IC50
Summary of the method: as §2

KRAS WT = KRAS WT (Homo sapiens, UniProt P01116+P62937); test: as above; type: biochemical; conditions: KRAS WT; read-out: KRAS WT FRET data IC50
Summary of the method: as §2

NRAS G12C = NRAS G12C (Homo sapiens, UniProt P01111+P62937, G12C); test: as above; type: biochemical; conditions: NRAS G12C; read-out: NRAS G12C FRET data IC50
KRAS Q61H = KRAS Q61H (Homo sapiens, UniProt P01116+P62937, Q61H); test: as above; type: biochemical; conditions: KRAS Q61H; read-out: KRAS Q61H FRET data IC50
Summary of the method: (§3)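 IC50 reflects compound-driven Ras:Cyclophilin A ternary complex displacing BRAF RBD, read as lowered TR-FRET ratio relative to DMSO after Eu anti-His (10 nM) and APC anti-GST (50 nM) detection for 1.5 h. Prior incubation 3 h, 25° C, with 12.5 nM GMPPNP-loaded Ras, 50 nM BRAF RBD, 25 μM Cyclophilin A; top compound 30 μM.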

NRAS Q61K = NRAS Q61K (Homo sapiens, UniProt P01111+P62937, Q61K); test: as above; type: biochemical; conditions: NRAS Q61K; read-out: NRAS Q61K FRET data IC50
Summary of the method: as §3

NRAS Q61R = NRAS Q61R (Homo sapiens, UniProt P01111+P62937, Q61R); test: as above; type: biochemical; conditions: NRAS Q61R; read-out: NRAS Q61R FRET data IC50
Summary of the method: as §3

NRAS WT = NRAS WT (Homo sapiens, UniProt P01111+P62937); test: as above; type: biochemical; conditions: NRAS WT; read-out: NRAS WT FRET data IC50
Summary of the method: as §3

Sequence of KRAS G12S (P01116 1-169 isoform P01116-2 G12S limits assumed): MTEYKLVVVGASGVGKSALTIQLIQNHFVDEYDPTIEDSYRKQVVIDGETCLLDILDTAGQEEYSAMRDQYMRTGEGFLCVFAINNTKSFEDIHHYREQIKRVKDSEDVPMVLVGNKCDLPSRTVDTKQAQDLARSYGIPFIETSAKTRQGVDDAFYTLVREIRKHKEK
Sequence of KRAS G12S (P62937 whole entry): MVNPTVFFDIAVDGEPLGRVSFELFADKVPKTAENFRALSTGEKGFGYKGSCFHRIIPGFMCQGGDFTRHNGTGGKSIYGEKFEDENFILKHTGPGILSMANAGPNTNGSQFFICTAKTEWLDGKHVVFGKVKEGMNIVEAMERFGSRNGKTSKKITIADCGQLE
Sequence of KRAS Q61H (P01116 1-169 isoform P01116-2 Q61H limits assumed): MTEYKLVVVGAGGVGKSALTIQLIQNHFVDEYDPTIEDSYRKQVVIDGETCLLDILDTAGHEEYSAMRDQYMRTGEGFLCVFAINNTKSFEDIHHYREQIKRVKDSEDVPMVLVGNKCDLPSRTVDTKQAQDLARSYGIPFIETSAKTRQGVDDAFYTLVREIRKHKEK
Sequence of KRAS Q61H (P62937 whole entry): as the sequence (P62937 whole entry) above
Sequence of NRAS G12C (P01111 whole entry G12C): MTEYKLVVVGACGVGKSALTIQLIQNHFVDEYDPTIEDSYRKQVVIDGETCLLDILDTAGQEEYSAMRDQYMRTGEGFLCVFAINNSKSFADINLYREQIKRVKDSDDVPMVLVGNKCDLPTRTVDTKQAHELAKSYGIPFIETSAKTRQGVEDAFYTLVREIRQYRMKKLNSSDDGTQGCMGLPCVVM
Sequence of NRAS G12C (P62937 whole entry): as the sequence (P62937 whole entry) above
Sequence of NRAS Q61R (P01111 whole entry Q61R): as the sequence (P01111 whole entry G12C) above, with C12G, Q61R counted along it
Sequence of NRAS Q61R (P62937 whole entry): as the sequence (P62937 whole entry) above
Sequence of KRAS WT (P01116 1-169 isoform P01116-2 limits assumed): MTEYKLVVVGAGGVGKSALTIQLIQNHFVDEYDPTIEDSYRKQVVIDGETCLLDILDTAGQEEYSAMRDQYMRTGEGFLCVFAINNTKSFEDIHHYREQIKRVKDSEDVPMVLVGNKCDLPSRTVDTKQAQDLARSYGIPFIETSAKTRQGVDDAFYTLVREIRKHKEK
Sequence of KRAS WT (P62937 whole entry): as the sequence (P62937 whole entry) above
Sequence of NRAS WT (P01111 whole entry): as the sequence (P01111 whole entry G12C) above, with C12G counted along it
Sequence of NRAS WT (P62937 whole entry): as the sequence (P62937 whole entry) above
Sequence of KRAS G12V (P01116 1-169 isoform P01116-2 G12V limits assumed): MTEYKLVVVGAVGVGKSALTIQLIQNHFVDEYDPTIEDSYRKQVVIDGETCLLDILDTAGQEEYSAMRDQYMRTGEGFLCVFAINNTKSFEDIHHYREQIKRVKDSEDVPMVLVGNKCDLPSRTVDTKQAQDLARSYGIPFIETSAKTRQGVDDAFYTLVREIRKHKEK
Sequence of KRAS G12V (P62937 whole entry): as the sequence (P62937 whole entry) above
Sequence of NRAS Q61K (P01111 whole entry Q61K): as the sequence (P01111 whole entry G12C) above, with C12G, Q61K counted along it
Sequence of NRAS Q61K (P62937 whole entry): as the sequence (P62937 whole entry) above
Sequence of KRAS G13D (P01116 1-169 isoform P01116-2 G13D limits assumed): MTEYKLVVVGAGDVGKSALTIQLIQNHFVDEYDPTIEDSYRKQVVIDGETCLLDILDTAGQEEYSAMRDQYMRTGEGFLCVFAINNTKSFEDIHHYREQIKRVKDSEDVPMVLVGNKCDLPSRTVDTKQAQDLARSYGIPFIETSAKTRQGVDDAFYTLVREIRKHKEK
Sequence of KRAS G13D (P62937 whole entry): as the sequence (P62937 whole entry) above
Sequence of KRAS G12C (P01116 1-169 isoform P01116-2 G12C): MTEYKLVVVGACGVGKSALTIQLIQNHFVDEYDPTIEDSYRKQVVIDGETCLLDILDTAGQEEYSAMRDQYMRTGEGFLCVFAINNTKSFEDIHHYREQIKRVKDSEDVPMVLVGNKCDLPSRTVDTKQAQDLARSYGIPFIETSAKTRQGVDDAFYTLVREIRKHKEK
Sequence of KRAS G12C (P62937 whole entry): as the sequence (P62937 whole entry) above
Sequence of KRAS G12D (P01116 1-169 isoform P01116-2 G12D limits assumed): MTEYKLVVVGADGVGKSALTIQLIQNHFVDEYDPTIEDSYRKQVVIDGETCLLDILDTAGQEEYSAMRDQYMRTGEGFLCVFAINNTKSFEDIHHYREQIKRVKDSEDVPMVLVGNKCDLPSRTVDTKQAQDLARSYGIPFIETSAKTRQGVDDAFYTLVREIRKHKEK
Sequence of KRAS G12D (P62937 whole entry): as the sequence (P62937 whole entry) above
Sequence of KRAS G13C (P01116 1-169 isoform P01116-2 G13C): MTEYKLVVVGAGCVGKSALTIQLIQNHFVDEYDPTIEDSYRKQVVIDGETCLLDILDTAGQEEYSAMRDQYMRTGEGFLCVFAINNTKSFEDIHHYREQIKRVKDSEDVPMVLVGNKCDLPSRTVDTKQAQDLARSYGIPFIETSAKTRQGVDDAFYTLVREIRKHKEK
Sequence of KRAS G13C (P62937 whole entry): as the sequence (P62937 whole entry) above

SMILES | IC50 (Capan-1 (K-Ras G12V)) | IC50 (NCI-H358 (K-Ras G12C)) | IC50 (KRAS G12C) | IC50 (KRAS G12D) | IC50 (KRAS G12S) | IC50 (KRAS G12V) | IC50 (KRAS G13C) | IC50 (KRAS G13D) | IC50 (KRAS WT) | IC50 (NRAS G12C) | IC50 (KRAS Q61H) | IC50 (NRAS Q61K) | IC50 (NRAS Q61R) | IC50 (NRAS WT)
CCn1c(-c2cccnc2[C@H](C)OC)c2c3cc(ccc31)-c1csc(n1)C[C@H](NC(=O)[C@H](C(C)C)N(C)C(=O)N1CC(CO)C1)C(=O)N1CCC[C@H](N1)C(=O)OCC(C)(C)C2 (atropisomer, axis not shown) [Example A356] | 10 to 100 nM | < 10 nM | 10 to 100 nM | 100 to 1000 nM | 100 to 1000 nM | 100 to 1000 nM | 100 to 1000 nM | 100 to 1000 nM | 100 to 1000 nM | 10 to 100 nM | 10 to 100 nM | 10 to 100 nM | 10 to 100 nM | 10 to 100 nM
CCn1c(-c2cccnc2[C@H](C)OC)c2c3cc(ccc31)-c1csc(n1)C[C@H](NC(=O)[C@H](C(C)C)N(C)C(=O)N1CC[C@]13CCCN(C)C3)C(=O)N1CCC[C@H](N1)C(=O)OCC(C)(C)C2 [Example A442] | 1000 to 10000 nM | 100 to 1000 nM | 1000 to 10000 nM | 1000 to 10000 nM | 1000 to 10000 nM | 1000 to 10000 nM | 1000 to 10000 nM | 100 to 1000 nM | 1000 to 10000 nM | 1000 to 10000 nM | 100 to 1000 nM | 1000 to 10000 nM | 1000 to 10000 nM | 1000 to 10000 nM
CCn1c(-c2cccnc2[C@H](C)OC)c2c3cc(ccc31)-c1cc(O)cc(c1)C[C@H](NC(=O)[C@H](C(C)C)N(C)C(=O)C1CCc3ccccc3N1)C(=O)N1CCC[C@H](N1)C(=O)OCC(C)(C)C2 (stereo partly drawn) [Example A226] | 100 to 1000 nM | 100 to 1000 nM | 10 to 100 nM | 1000 to 10000 nM | 100 to 1000 nM | 100 to 1000 nM | 10 to 100 nM | 100 to 1000 nM | 100 to 1000 nM | 100 to 1000 nM | 10 to 100 nM | 100 to 1000 nM | 100 to 1000 nM | 100 to 1000 nM
CCn1c(-c2cccnc2[C@H](C)OC)c2c3cc(ccc31)-c1csc(n1)C[C@H](NC(=O)[C@H](C(C)C)N(C)C(=O)N1CCN(C(=O)C3COC3)CC1)C(=O)N1CCC[C@H](N1)C(=O)OCC(C)(C)C2 (atropisomer, axis not shown) [Example A606] | 10 to 100 nM | < 10 nM | 10 to 100 nM | 100 to 1000 nM | 10 to 100 nM | 100 to 1000 nM | 100 to 1000 nM | 100 to 1000 nM | 10 to 100 nM | 10 to 100 nM | 10 to 100 nM | 10 to 100 nM | 10 to 100 nM | 10 to 100 nM
CCn1c(-c2cccnc2[C@H](C)OC)c2c3cc(ccc31)-c1csc(n1)C[C@H](NC(=O)[C@H](C(C)C)N(C)C(=O)N1CC3(C1)CS(=O)(=O)CCN3C)C(=O)N1CCC[C@H](N1)C(=O)OCC(C)(C)C2 [Example A482] | 100 to 1000 nM | 100 to 1000 nM | 1000 to 10000 nM | > 10000 nM | 1000 to 10000 nM | 1000 to 10000 nM | 1000 to 10000 nM | 1000 to 10000 nM | 1000 to 10000 nM | 100 to 1000 nM | 100 to 1000 nM | 100 to 1000 nM | 1000 to 10000 nM | 1000 to 10000 nM
CCn1c(-c2cccnc2[C@H](C)OC)c2c3cc(ccc31)-c1csc(n1)C[C@H](NC(=O)[C@H](C(C)C)N(C)C(=O)N1CC[C@H]3CN(C)C[C@H]31)C(=O)N1CCC[C@H](N1)C(=O)OCC(C)(C)C2 (atropisomer, axis not shown) [Example A471] | 100 to 1000 nM | 100 to 1000 nM | 10 to 100 nM | 100 to 1000 nM | 100 to 1000 nM | 100 to 1000 nM | 100 to 1000 nM | 100 to 1000 nM | 100 to 1000 nM | 10 to 100 nM | 10 to 100 nM | 10 to 100 nM | 100 to 1000 nM | 10 to 100 nM
CCn1c(-c2cccnc2[C@H](C)OC)c2c3cc(ccc31)-c1csc(n1)C[C@H](NC(=O)[C@H](C(C)C)N(C)C(=O)N1CC(C(C)(C)OC)C1)C(=O)N1CCC[C@H](N1)C(=O)OCC(C)(C)C2 (atropisomer, axis not shown) [Example A614] | 10 to 100 nM | 10 to 100 nM | 10 to 100 nM | 100 to 1000 nM | 100 to 1000 nM | 100 to 1000 nM | 100 to 1000 nM | 100 to 1000 nM | 100 to 1000 nM | 10 to 100 nM | 10 to 100 nM | 10 to 100 nM | 100 to 1000 nM | 100 to 1000 nM
CCn1c(-c2cccnc2[C@H](C)OC)c2c3cc(ccc31)-c1cc(O)cc(c1)C[C@H](NC(=O)[C@H](C(C)C)N(C)C(=O)[C@H]1CCN(C(=O)OC3COC3)C1)C(=O)N1CCC[C@H](N1)C(=O)OCC(C)(C)C2 [Example A204] | 10 to 100 nM | 10 to 100 nM | 10 to 100 nM | 100 to 1000 nM | 10 to 100 nM | 10 to 100 nM | 10 to 100 nM | 10 to 100 nM | 10 to 100 nM | 10 to 100 nM | 10 to 100 nM | 100 to 1000 nM | 100 to 1000 nM | 10 to 100 nM
CCn1c(-c2cccnc2[C@H](C)OC)c2c3cc(ccc31)-c1cc(O)cc(c1)C[C@H](NC(=O)[C@H](C(C)C)N(C)C(=O)C1CCC(C3CCCO3)O1)C(=O)N1CCC[C@H](N1)C(=O)OCC(C)(C)C2 (stereo partly drawn) [Example A396] | 100 to 1000 nM | 100 to 1000 nM | 10 to 100 nM | 100 to 1000 nM | 10 to 100 nM | 10 to 100 nM | 10 to 100 nM | 10 to 100 nM | 10 to 100 nM | 10 to 100 nM | 10 to 100 nM | 10 to 100 nM | 10 to 100 nM | 10 to 100 nM
CCn1c(-c2cccnc2[C@H](C)OC)c2c3cc(ccc31)-c1csc(n1)C[C@H](NC(=O)[C@H](C(C)C)N(C)C(=O)N1CC(C3CN(C)C3)C1)C(=O)N1CCC[C@H](N1)C(=O)OCC(C)(C)C2 (atropisomer, axis not shown) [Example A608] | 10 to 100 nM | 100 to 1000 nM | 10 to 100 nM | 100 to 1000 nM | 100 to 1000 nM | 100 to 1000 nM | 100 to 1000 nM | 100 to 1000 nM | 100 to 1000 nM | 10 to 100 nM | 10 to 100 nM | 10 to 100 nM | 100 to 1000 nM | 100 to 1000 nM
CCn1c(-c2cccnc2[C@H](C)OC)c2c3cc(ccc31)-c1csc(n1)C[C@H](NC(=O)[C@H](C(C)C)N(C)C(=O)N1CCCC13COC3)C(=O)N1CCC[C@H](N1)C(=O)OCC(C)(C)C2 (atropisomer, axis not shown) [Example A528] | 10 to 100 nM | 10 to 100 nM | 10 to 100 nM | 100 to 1000 nM | 100 to 1000 nM | 100 to 1000 nM | 100 to 1000 nM | 100 to 1000 nM | 10 to 100 nM | 10 to 100 nM | 10 to 100 nM | 10 to 100 nM | 10 to 100 nM | 10 to 100 nM
CCn1c(-c2cc(C3CCN(C)CC3)cnc2[C@H](C)OC)c2c3cc(ccc31)-c1cc(O)cc(c1)C[C@H](NC(=O)[C@H](C(C)C)N(C)C(=O)[C@@H]1OCC[C@@H]1c1ccccc1)C(=O)N1CCC[C@H](N1)C(=O)OCC(C)(C)C2 (atropisomer, axis not shown) [Example A577] | < 10 nM | < 10 nM | < 10 nM | 10 to 100 nM | < 10 nM | 10 to 100 nM | 10 to 100 nM | 10 to 100 nM | 10 to 100 nM | < 10 nM | < 10 nM | 10 to 100 nM | < 10 nM | < 10 nM
